Assay results as given in US10202408B2, “Prodrugs and methods of use thereof” (Health Innovation Ventures B.V., priority 2012, dated 2019).
Entries after “also recorded” stand apart in the source; their conditions may differ.

Legend:
[1] = system: HCT116 cells engineered to over-express E coli NfsA; assay: Low cell density IC50 (SRB) assay, HCT116 wild type versus E coli NfsA over-expressing cells; format: cell-based, human
Protocol: (§1) Compounds were subjected to testing, including low-cell density cytotoxicity assay. Cells (500 cells/well) were seeded in 96-well plates and exposed to prodrug for 4 h, washed, then left to grow for a further 5 days. The SRB assay was employed to determine IC50 values (concentration of prodrug required to inhibit proliferation by 50%). Parental HCT116 cells (HCT116 is a cell line derived from human colon cancer) and cells expressing the example nitroreductase gene nfsA from Escherichia coli were evaluated head-to-head. Parental H1299 cells (H1299 is a cell line derived from lung cancer) and cells expressing the example nitroreductase gene nfsA from Escherichia coli were evaluated head-to-head. Parental HCT116 cells and cells expressing human AKR1C3 were evaluated head-to-head. Parental H1299 cells and cells expressing human AKR1C3 were evaluated head-to-head. In a variation of these assays test compounds were assessed for their ability to give hypoxia-selective cell killing. Here wild type HCT116, H460 (H460 is a cell line derived from lung cancer), H1299 and SiHa cells (SiHa is a cell line derived from cervical cancer) were used in addition to HCT116 cells engineered to over express cytochrome P450 reductase (HCT116 POR), a human one-electron nitroreductase. Low-cell density cytotoxicity assays were performed as above under oxic conditions and compared to experiments where cells were shown 4 h of anoxia during the prodrug exposure period, before being washed free of prodrug and then left to grow for a further 5 days under oxic conditions, as above.

[2] = system: H1299 cells engineered to over-express E coli NfsA; assay: Low cell density IC50 (SRB) assay, H1299 wild type versus E coli NfsA over-expressing cells; format: cell-based, human
Protocol: as §1

[3] = system: HCT116 MCLs over-expressing AKR1C3; assay: Multicellular layer (MCL) clonogenic assay, HCT116 wild type versus AKR1C3 over-expressing MCLs; format: cell-based, human
Protocol: (§2) In parallel, a three dimensional high-cell density multi-cellular layer (MCL) clonogenic assay was performed. 1×10^6 cells of either 100% HCT-116^WT or containing 97% WT with a minor 3% HCT-116^NTR cell population were seeded into a collagen-coated Teflon microporous membrane and left to grow for 3 days. MCLs were then exposed to prodrug for 5 h. After treatment, MCLs were enzyme dissociated, diluted in fresh medium and plated to determine clonogenic survival. To discriminate clonogenic activator (NTR+) from target (NTR−) colonies, cells were plated in non-selective medium (total cells) and medium containing 1 μM puromycin (activator cells). Colonies were grown for 10 days before staining. Colonies containing >50 cells were counted. A variation of this assay was also used to assess for evidence of AKR1C3-dependent cytotoxicity. Here either 100% HCT-116W^T or 100% HCT-116^AKR1C3 cells were seeded to provide MCLs that were then exposed to prodrug.

[4] = system: HCT116 cells engineered to over-express human aldo-ketoreductase 1C3 (AKR1C3); assay: Low cell density IC50 (SRB) assay, HCT116 wild type versus AKR1C3 over-expressing cells; format: cell-based; settings: 4 h exposure
Protocol: as §1

[5] = system: wild type SiHa tumour xenografts; assay: Excision assay with and without radiation, wild type SiHa tumour xenografts; format: in vivo, NIH-III nude mice
Protocol: Tumours were grown subcutaneously in the flank of NIH-III mice by inoculating cells grown in tissue culture. Tumours were monitored using electronic calipers. When tumours reached treatment size, mice were randomized to treatment groups (five to seven per group). Compounds were given as single (or BID) intraperitoneal doses alone or 5 min after whole body irradiation (^60Co source). Eighteen hours after treatment, tumours were excised, weighed, minced, dissociated enzymatically, and plated to determine clonogenicity. Clonogens/gram of tissue were calculated relative to controls and effects of treatment were tested for significance (ANOVA with Dunnett's).

[6] = system: 15% E coli NfsA-expressing H1299 xenografts; assay: Tumour growth delay, 15% E coli NfsA-expressing H1299 xenografts; format: in vivo, NIH-III mice
Protocol: Animals weighed 18-25 g at the time of tumour inoculation. Tumours were grown subcutaneously on the right flank of mice by inoculating cells grown in tissue culture (1×10^7 cells in 100 uL serum free α-MEM). Tumour sizes were monitored three times weekly using electronic callipers and treatments were initiated once tumour diameter reached ≥7 mm.
Tumour bearing mice were randomised into the appropriate treatment groups and tumour size and body weight recorded. Test compounds were formulated on the day of the experiment and kept in foil-wrapped tubes out of direct fluorescent light. If recruitment of animals occurred over multiple days, the drug stocks were aliquoted into tubes and frozen once at […] until required. Mice were treated with a single (or BID) dose of prodrug by intraperitoneal injection and thereafter tumour size and body weight was monitored every second day. Tumour volume was calculated as π (l×w×w)/6, where l is the major axis and w is the perpendicular minor axis. Animals were culled when they had reached the appropriate survival endpoint or when body weight loss exceeded 20% of the pre-treatment value.

[7] = system: HCT116 MCLs with 3% E coli NfsA-expressing cells; assay: MCL clonogenic bystander assay, HCT116 MCLs seeded with 3% E coli NfsA-expressing cells; format: cell-based, human; settings: 97% wild type HCT116, 3% E coli NfsA-expressing cells
Protocol: as §2

[8] = system: bacterial nitroreductases from the NfsA and NfsB families; assay: GFP SOS assay with nitroreductase over-expression library; format: cell-based, E. coli strain SOS-R4; settings: 55 candidate nitroreductase library, 6 h challenge
Text: The method employed the over-expression of a candidate nitroreductase gene from plasmid pUCX in an SOS reporter strain, as first described in Prosser et al., 2010, Biochem Pharmacol 79, 678-687. In order to enhance the sensitivity of the SOS reporter system, an sfiA::GFP reporter construct was integrated into a CDF-based plasmid (which contains a compatible origin of replication with pUCX) to give the pANODuet reporter plasmid for GFP screening. In addition, nfsA, nfsB, azoR, and nemA genes were deleted to minimise background metabolism, and the tolC gene deleted to minimise efflux of test compounds; this strain was designated SOS-R3. Further improvements were obtained by deleting the mdaB, ycaK, and yieF genes to minimise background metabolism, and by introducing transcriptional terminators to the pANODUET reporter plasmid. This final reporter strain was designated SOS-R4.
Stored glycerols of the 55-membered nitroreductase library in SOS-R4 were thawed and used to inoculate overnight cultures (Lysogeny Broth (LB) amended with 100 μg ml^−1 Ampicillin, 50 μg ml^−1 Spectinomycin, 0.4% glucose) that were incubated at 30° C., 200 rpm for 16 h. The next morning the GFP-SOS assay was commenced by inoculation of 195 μl fresh assay media (LB+100 μg ml^−1 Ampicillin, 50 μg ml^−1 Spectinomycin, 0.2% glucose, 50 μM IPTG) with 15 μl of overnight culture in individual wells of a 96-well plate. Plates were incubated at 30° C., 200 rpm for 2.5 h (pre-challenge period), following which cultures were diluted 1:2 by splitting 50:50 into fresh assay media (+DMSO to 0.5% final concentration) and fresh challenge media (assay media+drug to desired concentration, DMSO to 0.5% final concentration) to final volumes of 80 μl apiece in duplicate on a 384-well plate. Plates were incubated at 30° C., 200 rpm for 6 h (challenge period). GFP expression was determined at excitation 488 nm/emission 509 nm. Turbidity was determined by OD600 and fluorescence data from any replicates not found to be within 15% of the median culture turbidity were discarded.

[9] = system: bacterial nitroreductases from the NfsA and NfsB families; assay: as above; format: cell-based, E. coli strain SOS-R4; settings: single and poly mutated variants of NfsA_Ec, single-mutated variant of NfsA_Bs
[10] = system: H1299 cells engineered to over-express human aldo-ketoreductase 1C3 (AKR1C3); assay: Low cell density IC50 (SRB) assay, H1299 wild type versus AKR1C3 over-expressing cells; format: cell-based; settings: 4 h exposure
Protocol: as §1

| Structure (SMILES) | E coli NfsA-mediated cytotoxicity (IC50 wild type versus NfsA) [1] | E coli NfsA-mediated cytotoxicity (IC50 wild type versus NfsA) [2] | AKR1C3-dependent clonogenic cell kill in MCLs [3] | AKR1C3-mediated cytotoxicity (IC50 wild type versus AKR1C3) [4] | bystander cell killing in MCLs [7] | metabolism by bacterial nitroreductases (SOS response) [8] | activity with mutated nitroreductase variants [9] | further results |
| --- | --- | --- | --- | --- | --- | --- | --- | --- |
| CS(=O)(=O)OCCN(CCBr)c1c(C(=O)NCCO)cc([N+](=O)[O-])cc1[N+](=O)[O-] [PR-104A, 2-((2-bromoethyl)(2-((2-hydroxyethyl)carbamoyl)-4,6-dinitrophenyl)amino)ethyl methanesulfonate, reference compound] | produce E coli NfsA-mediated cytotoxicity | produce E coli NfsA-mediated cytotoxicity |  |  |  |  |  |  |
| CCN(CCO)C(=O)c1cc([N+](=O)[O-])cc([N+](=O)[O-])c1N(CCBr)CCBr [compound 7, reference compound] |  |  | capable of producing AKR1C3-dependent cell ablation |  |  |  |  |  |
| CC(C)N(CCO)C(=O)c1cc([N+](=O)[O-])cc([N+](=O)[O-])c1N(CCBr)CCBr [compound 8, reference compound] |  |  |  | appear negative for AKR1C3 dependent cell sensitivity |  |  |  |  |
| CCCN(CCO)C(=O)c1cc([N+](=O)[O-])cc([N+](=O)[O-])c1N(CCBr)CCBr [compound 9, reference compound] |  |  | capable of producing AKR1C3-dependent cell ablation | appears to be AKR1C3-negative; also recorded: appear negative for AKR1C3 dependent cell sensitivity |  |  |  |  |
| CCS(=O)(=O)c1cc([N+](=O)[O-])c(C(=O)N(C)CCOP(=O)(O)O)cc1N(CCBr)CCBr [compound 11, 2-(5-(bis(2-bromoethyl)amino)-4-(ethylsulfonyl)-N-methyl-2-nitrobenzamido)ethyl dihydrogen phosphate] |  |  |  |  |  |  |  | cell killing in combination with radiation versus radiation alone ([5]; HCT116 POR and wild type SiHa xenografts, 10 or 15Gy, single (or BID) intraperitoneal dose): increased cell killing above what could be achieved with radiation alone; hypoxic cell kill in vivo (log cell kill) ([5]; with or without 10Gy radiation, 22 at 422, 300 and 11 at 1330, 23 at 1000 umol/kg): significant hypoxic cell kill in vivo; tumour growth delay ([6]; mixed HCT116 and H1299 xenografts, 15% E coli NfsA cells, single (or BID) intraperitoneal dose): profound tumour growth delay; E coli NfsA mediated anti-tumour efficacy (mean tumour volume) ([6]; single dose, 10, 22, 60 and 11 at 750, 422, 1330 and 1330 umol/kg): display significant E coli NfsA mediated anti-tumour efficacy |
| CC(C)N1CCN(C(=O)c2cc(N(CCBr)CCBr)c(S(C)(=O)=O)cc2[N+](=O)[O-])CC1 [compound 24, (5-(bis(2-bromoethyl)amino)-4-(methylsulfonyl)-2-nitrophenyl)(4-isopropylpiperazin-1-yl)methanone] | produce E coli NfsA-mediated cytotoxicity | produce E coli NfsA-mediated cytotoxicity | do not cause AKR1C3-dependant cytotoxicity | less susceptible to AKR1C3-mediated cytotoxicity than PR-104A | display evidence of metabolism by the 3% E coli NfsA-expressing cells with bystander cell killing of the 97% non-expressing neighbour cells | substrates for multiple wild type and mutant bacterial nitroreductases from the NfsA and NfsB families | demonstrated | AKR1C3-mediated cytotoxicity (IC50 wild type versus AKR1C3) [10]: less susceptible to AKR1C3-mediated cytotoxicity than PR-104A |
| CCS(=O)(=O)c1cc([N+](=O)[O-])c(C(=O)N2CCN(C)CC2)cc1N(CCBr)CCBr [compound 25, (5-(bis(2-bromoethyl)amino)-4-(ethylsulfonyl)-2-nitrophenyl)(4-methylpiperazin-1-yl)methanone] | produce E coli NfsA-mediated cytotoxicity | produce E coli NfsA-mediated cytotoxicity | do not cause AKR1C3-dependant cytotoxicity | less susceptible to AKR1C3-mediated cytotoxicity than PR-104A | display evidence of metabolism by the 3% E coli NfsA-expressing cells with bystander cell killing of the 97% non-expressing neighbour cells | substrates for multiple wild type and mutant bacterial nitroreductases from the NfsA and NfsB families | demonstrated | AKR1C3-mediated cytotoxicity (IC50 wild type versus AKR1C3) [10]: less susceptible to AKR1C3-mediated cytotoxicity than PR-104A |
| CS(=O)(=O)OCCN(CCBr)c1ccc([N+](=O)[O-])cc1C(=O)NCCO [compound 64, 2-((2-bromoethyl)(2-((2-hydroxyethyl)carbamoyl)-4-nitrophenyl)amino)ethyl methanesulfonate] | produce E coli NfsA-mediated cytotoxicity | produce E coli NfsA-mediated cytotoxicity | do not cause AKR1C3-dependant cytotoxicity | less susceptible to AKR1C3-mediated cytotoxicity than PR-104A | display evidence of metabolism by the 3% E coli NfsA-expressing cells with bystander cell killing of the 97% non-expressing neighbour cells | substrates for multiple wild type and mutant bacterial nitroreductases from the NfsA and NfsB families | demonstrated |  |
